The record followed here is paper PMC9112895, “Selective Inhibition of Plasmodium falciparum ATPase 6 by Artemisinins and Identification of New Classes of Inhibitors after Expression in Yeast” (Antimicrobial Agents and Chemotherapy, 2022).

Marks after values point to notes of the source that are not given here.

Test [1] addresses T1, PfATP6 (Plasmodium falciparum, UniProt Q08853). The test can be described thus: Yeast whole-cell growth inhibition (functional rescue) assay, K667[PfATP6]. The test is classed as cell-based. Set-up: pUGpd containing the yeast-optimized coding region of PfATP6 from Plasmodium falciparum; expressed in transfected cells; host or cells: Saccharomyces cerevisiae K667 and K667Δpdr5::HIS. The protocol:
(§1) The screening assay used here was developed from the protocol used by Pulcini et al. ([13]). A single colony of the yeast strain to be screened was picked and grown in 5 mL of selective medium until stationary phase was reached. The culture was diluted 100-fold in ampicillin-supplemented yeast extract-peptone-dextrose (YPD) medium to an OD at 620 nm (OD620) equivalent to that of lag phase. YPD medium was supplemented with an appropriate concentration of calcium, depending on the transformed strain. […] The optimal calcium concentration was periodically monitored and, if necessary, adjusted using a calcium concentration range of 10 to 30 mM. A final volume of 200 μL of the yeast culture was added to each well of a 96-well plate, with 5 technical replicates included per inhibitor. All inhibitors were dissolved in dimethyl sulfoxide (DMSO) unless otherwise stated. […] The 96-well plates were incubated at 30°C for 42 h. The yeast growth was estimated from the absorbance at 620 nm in a Tecan plate reader. Growth was normalized with the no-drug control to present data as percent growth. The data collected were analyzed using GraphPad Prism v9.0 (GraphPad software, San Diego, CA, U.S.A).

For test [2], the target named is T1, PfATP6. In words: cell-based. The conditions noted are these: for Fold difference: IC50 K667[PfATP6] versus K667Δpdr5[PfATP6]; for inhibition of PfATP6 in compound screen: growth inhibition, K667Δpdr5[PfATP6]. Set-up: pUGpd containing the yeast-optimized coding region of PfATP6 from Plasmodium falciparum; expressed in transfected cells; host or cells: Saccharomyces cerevisiae K667 and K667Δpdr5::HIS. The test is classed as cell-based. The protocol: as §1

Test [3] relates to cytosolic Ca2+ concentration in parasites. The test can be described thus: Parasite calcium homeostasis (YC-Nano biosensor, flow cytometry). The test is classed as cell-based, Plasmodium falciparum. The settings on record: 25 μM, YC-Nano-expressing parasites. The protocol:
Three biological replicates were carried out, after an initial blinded experiment.

Test [4] addresses T1, PfATP6. In words: DHA-biotin labeling / pulldown, Western blot and mass spectrometry. Set-up: pUGpd containing the yeast-optimized coding region of PfATP6 from Plasmodium falciparum; expressed in transfected cells; host or cells: Saccharomyces cerevisiae K667 and K667Δpdr5::HIS. Type of test: binding. The protocol: Both whole yeast and microsomes were prepared for mass spectrometric analysis by addition of 500 nM biotin-tagged DHA probe to 200 μL (∼0.6 mg protein) of yeast microsome preparation or 10 μM probe to 50 to 100 mL yeast culture at an OD620 of 1.0 to 1.5 (∼35 to 70 mg total protein) and incubation for 4 h at 30°C. For competition studies, 25× artesunate was added and incubated for 30 min before addition of the probe and incubation for 4 h at 30°C. Samples were then acetone precipitated by adding 4 volumes of −20°C acetone/water (4:1) to the yeast pellet or microsomal pellet and incubating the mixture for 2 h to overnight at −20°C. The samples were then pelleted at 13,000 to 16,000 × g for 10 min at 0°C to 4°C and washed twice with −20°C acetone/water solution. After a final centrifugation, pellets were dried in a freeze-drier for 1 h. Subsequent pulldowns and liquid chromatography-tandem mass spectrometry were performed as described by Wang et al. ([18]).
A 0.3-mg aliquot of PfATP6-enriched membrane vesicles, as well as an aliquot of SERCA1a and vector-only membrane vesicles, were thawed on ice. One-half of each aliquot (0.15 mg) was preincubated with 12.5 μM artesunate at 30°C for 30 min. Then, all samples had 500 nM DHA-biotin probe added (NewChem Technologies) and were incubated at 30°C for 4 h. […] Blots were analyzed using the Odyssey scanner system. […]

For test [5], the target named is T1, PfATP6. In words: In vitro activity assay, PfATP6 (membrane-bound). Type of test: biochemical. Set-up: pUGpd containing the yeast-optimized coding region of PfATP6 from Plasmodium falciparum; expressed in transfected cells. The settings on record: 1 μM free calcium. The protocol:
Activity assays were performed as described by Longland et al. ([55]) and LeBel et al. ([56]), except that the reaction mixtures were incubated at 30°C instead of 37°C. […] Then, 5.8 mM ATP was added and incubated for an additional 15 min at 30°C. The reaction was stopped with 0.5 mL 6.5% trichloroacetic acid (TCA) on ice, and the mixture was centrifuged at 4°C for 10 min at 16,000 × g; 0.5 mL of the supernatant was added to 1.5 mL of copper acetate buffer (0.25% copper sulfate pentahydrate, 4.6% sodium acetate trihydrate, dissolved in 2 M acetic acid [pH 4.0]) and mixed by vortex-mixing before the addition of 0.25 mL of 5% ammonium molybdate, followed by 0.25 mL METOL buffer (2% p-methyl-aminophenol sulfate, 5% sodium sulfite). Samples were incubated for 10 min, and the absorbance was measured at 870 nm in a spectrophotometer. The Pi standard was 0.4387 g/100 mL KH2PO4.

For test [6], the system named is Plasmodium falciparum. In words: In vitro parasite assay ([3H]hypoxanthine uptake). Type of test: cell-based. The settings on record: parasites in vitro, read-out: antiparasitic potency IC50. Here is the method: Inhibitor IC50s were calculated in parasite assays following the protocol described by Desjardins et al. ([52]). Briefly, cultures were synchronized to ring stage by D-sorbitol lysis, using a 5% D-sorbitol solution. The parasites were diluted to a final parasitemia of 1%. Hypoxanthine-free medium was added to give a hematocrit level of 4%. A 2-fold dilution series of the inhibitors in hypoxanthine-free medium was prepared, and 100 μL of each inhibitor concentration was seeded in a 96-well plate, with 5 technical replicates of each included. Two no-inhibitor controls, i.e., hypoxanthine-free medium only, were included. Plates were incubated at 37°C in 5% CO2 for 24 h. After 24 h, [^3H]hypoxanthine was added to each well to a final concentration of 0.5 μCi/well, and the plates were incubated for a further 24 h. Plates were then freeze-thawed to lyse the cells, and the [^3H]hypoxanthine uptake was measured in a Beckman scintillation counter.

T1 sequence (Q08853 whole entry): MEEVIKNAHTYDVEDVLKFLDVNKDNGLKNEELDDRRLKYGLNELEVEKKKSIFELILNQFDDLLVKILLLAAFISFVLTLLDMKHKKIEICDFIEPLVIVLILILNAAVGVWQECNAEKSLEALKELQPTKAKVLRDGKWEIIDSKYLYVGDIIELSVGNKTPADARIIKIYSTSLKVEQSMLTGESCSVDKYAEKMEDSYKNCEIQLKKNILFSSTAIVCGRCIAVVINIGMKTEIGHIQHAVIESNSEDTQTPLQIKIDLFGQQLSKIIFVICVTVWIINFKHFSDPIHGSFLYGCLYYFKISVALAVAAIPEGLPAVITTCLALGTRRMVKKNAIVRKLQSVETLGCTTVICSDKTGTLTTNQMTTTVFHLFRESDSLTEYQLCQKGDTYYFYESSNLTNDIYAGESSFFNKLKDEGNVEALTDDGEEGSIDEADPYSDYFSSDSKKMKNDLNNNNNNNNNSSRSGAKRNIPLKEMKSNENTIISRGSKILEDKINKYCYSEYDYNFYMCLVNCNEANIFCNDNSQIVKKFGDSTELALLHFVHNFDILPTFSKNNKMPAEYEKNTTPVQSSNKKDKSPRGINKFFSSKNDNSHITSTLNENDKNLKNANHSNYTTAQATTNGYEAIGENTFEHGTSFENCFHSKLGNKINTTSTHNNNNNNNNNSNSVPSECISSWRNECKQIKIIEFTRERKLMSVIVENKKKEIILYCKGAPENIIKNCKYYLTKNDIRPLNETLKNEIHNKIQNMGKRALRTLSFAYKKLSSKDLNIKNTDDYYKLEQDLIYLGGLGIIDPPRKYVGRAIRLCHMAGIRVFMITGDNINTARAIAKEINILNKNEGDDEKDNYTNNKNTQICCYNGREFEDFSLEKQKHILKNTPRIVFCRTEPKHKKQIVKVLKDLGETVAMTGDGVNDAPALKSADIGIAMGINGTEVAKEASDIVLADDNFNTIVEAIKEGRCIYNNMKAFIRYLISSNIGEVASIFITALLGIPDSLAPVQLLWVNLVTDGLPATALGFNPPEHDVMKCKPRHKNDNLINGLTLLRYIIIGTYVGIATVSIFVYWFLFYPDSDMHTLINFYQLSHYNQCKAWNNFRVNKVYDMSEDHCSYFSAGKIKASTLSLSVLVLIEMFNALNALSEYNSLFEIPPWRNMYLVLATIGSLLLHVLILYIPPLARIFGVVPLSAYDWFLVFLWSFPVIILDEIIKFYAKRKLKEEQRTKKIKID

Usually IC50 stands for the concentration that gives 50% inhibition. For orientation: IC80 means the concentration at which the effect reaches the 80% level. With `CO[C@H]1O[C@@H]2O[C@@]3(C)CC[C@H]4[C@H](C)CC[C@@H]([C@H]1C)[C@@]24OO3` [Artemether], the IC50 in test [1] is 15.7 µM. Further, in test [2], inhibition was half-maximal at 3.4 µM (IC50) and the Fold difference is 5^e. Also, the “approximate IC10” value in test [2] (fitness cost assays, drug pressure) was about 1 µM. In test [2] (read-out: approximate yeast IC80), the 80% effect concentration (IC80) is about 1 µM.
`C[C@@H]1CC[C@H]2[C@@H](C)C(=O)O[C@@H]3O[C@@]4(C)CC[C@@H]1[C@]32OO4` [Artemisinin]: the IC50 stood at 10.6 µM in test [1] and 1.8 µM in test [2].
For the molecule `C[C@H]1[C@H](N2CCS(=O)(=O)CC2)O[C@@H]2O[C@@]3(C)CC[C@H]4[C@H](C)CC[C@@H]1[C@@]24OO3` [Artemisone], the 50% inhibitory concentration (IC50) in test [1] came out at 3.6 µM; in test [2] it was 0.9 µM. Moreover, the Fold difference in test [2] is listed as 4^c. For the same molecule, the “change in cytosolic Ca2+ concentration” value in test [3] is “significantly increased”; in test [3] (listed as artemisone) it was “sustained elevation”.
`C[C@H]1[C@H](OC(=O)CCC(=O)O)O[C@@H]2O[C@@]3(C)CC[C@H]4[C@H](C)CC[C@@H]1[C@@]24OO3` [Artesunate]: the IC50 was 14.8 µM in test [1] and 3.7 µM in test [2]. Besides, the “competition with tagged DHA for PfATP6” value in test [4] (preincubation with excess artesunate) is “competed with the tagged DHA”. In addition, the Fold difference in test [2] is 4^d.
As for `C[C@H]1[C@@H](O)O[C@@H]2O[C@@]3(C)CC[C@H]4[C@H](C)CC[C@@H]1[C@@]24OO3` [DHA, dihydroartemisinin], the “in vitro activity of PfATP6 versus no drug control” value in test [5] was “No significant”. The IC50 worked out at 0.0025 µM in test [6], 23.8 µM in test [1] and 2.1 µM in test [2]. The Fold difference in test [2] is given as 11^c.
Turning to `Oc1ccc(O)cc1` [benzohydroquinone], the “inhibition of PfATP6 in compound screen” value in test [2] is “limited success”.
Consider `CC1CCC2C(C)C(OC(=O)CCOCCOCCOCCOCCNC(=O)CCCCC3SCC4NC(=O)NC43)OC3OC4(C)CCC1C32OO4` (stereo not drawn) [biotin-derivatized DHA], for which the IC50 in test [6] was 0.005 µM. Moreover, in test [4] (membrane extracts and whole yeast, K667[PfATP6], mass spectrometry), the “alkylation/labeling of PfATP6” value is on record as “alkylated”.
On to `C[C@@H]1CC[C@H]2[C@@H](C)C(=O)O[C@@H]3O[C@@]4(C)CC[C@@H]1[C@]32O4` [deoxyartemisinin], for which, in test [5], the “in vitro activity of PfATP6 versus no drug control” value is listed as “No significant”.
In the case of `Cc1cc(O)c2c(=O)c3c(O)cc(O)c4c5c(O)cc(O)c6c(=O)c7c(O)cc(C)c8c1c2c(c34)c(c78)c65` [hypericin], the “inhibition of PfATP6 in compound screen” value in test [2] was “limited success”.
As for `C[C@H]1O[C@@H](O[C@H]2CC[C@@]3(C)[C@@H](CC[C@]4(C)[C@@H]3C=C[C@]35OC[C@@]6(CCC(C)(C)C[C@H]63)[C@H](O)C[C@]54C)[C@]2(C)CO)[C@H](O)[C@@H](O[C@@H]2O[C@H](CO)[C@@H](O)[C@H](O)[C@H]2O)[C@H]1O` [saikosaponin, Saikosaponin D], the “concentration at which PfATP6 was inhibited” value in test [2] (inhibited only at high concentrations) was over 100 µM.
